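A five-concentration, 48-hour dose response in 96-well plates underlies each endpoint, interpolated linearly between surrounding concentrations. GI50 is the concentration that inhibits growth by half.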 Calls of active or inactive are those of the source. No stated cut-off is given here; in the data, active = GI50 up to about 1.1 µM and inactive = higher.

Test systems include NCI-H23; HOP-92; UO-31; HCT-116; LOX IMVI; NCI-H522; OVCAR-8; EKVX; HCC 2998; SNB-75; ACHN; SF-539; Malme-3M; NCI-H226; CAKI-1; COLO 205.
Test in all cases: growth of human tumour cells (NCI), 48 h

For `CN(C)CCSc1cccc(-c2cc(-c3cccc(SCCN(C)C)c3)nc(SCCN(C)C)n2)c1`, the GI50 was 4.49 µM (inactive) with NCI-H23; 0.551 µM (active) with HOP-92; 12.8 µM (inactive) in the test with UO-31; 1.17 µM (inactive) in the test on HCT-116; 1.64 µM (inactive) with LOX IMVI; 1.61 µM (inactive) with NCI-H522. For the same molecule, the GI50 in the test on OVCAR-8 was 1.42 µM (inactive); in the test with EKVX, 2.06 µM (inactive); in the test with HCC 2998, 2.29 µM (inactive); in the test on SNB-75, 2.95 µM (inactive); in the test on ACHN it was 5.77 µM (inactive); in the test with SF-539 it was 1.77 µM (inactive). Moreover, in the test with Malme-3M, the GI50 is 1.87 µM (inactive).

Consider `CCOC(=O)C1=C(NC)OC/C1=N\NC(=O)c1ccccc1O`, for which the GI50 in the test with NCI-H23 is 6.87 µM (inactive); in the test on HOP-92, 26.1 µM (inactive); with UO-31 it was 4.83 µM (inactive); in the test with HCT-116 it was 9.29 µM (inactive); with LOX IMVI, 15.2 µM (inactive); in the test with NCI-H522, 9.31 µM (inactive). Moreover, the GI50 in the test with NCI-H226 was 13.3 µM (inactive); with OVCAR-8, 24.2 µM (inactive); with EKVX, 44.6 µM (inactive); in the test on CAKI-1 it was 17.1 µM (inactive); in the test on HCC 2998, 25.1 µM (inactive); with SNB-75, 69.3 µM (inactive). Besides, the GI50 in the test on SF-539 is 13 µM (inactive); in the test on COLO 205, > 100 µM (inactive); in the test on Malme-3M it was 26.9 µM (inactive).

`COc1ccc(OC(=O)CC2Cc3cc(OC)c(OC)c(OC)c3-c3ccc(SC)c(=O)cc32)cc1` (configuration not stated): the GI50 with NCI-H23 is 0.421 µM (active); with HOP-92, 0.467 µM (active); in the test on UO-31 it was 0.792 µM (active); with HCT-116 it was 0.156 µM (active); in the test on LOX IMVI, 0.172 µM (active); in the test with NCI-H522 it was 0.2 µM (active). Further, the GI50 in the test on NCI-H226 is 0.216 µM (active); in the test on OVCAR-8 it was 0.27 µM (active); in the test with EKVX it was > 28.7 µM (inactive); with HCC 2998, 0.0568 µM (active); in the test with SNB-75, 2.52 µM (inactive); with ACHN it was 0.792 µM (active). For the same molecule, the GI50 in the test on SF-539 is 0.114 µM (active); in the test on COLO 205, 0.403 µM (active); with Malme-3M, 0.383 µM (active).

Take `CCOC(=O)N1CCc2cc(OC)c(OC)cc2/C1=C/c1ccc(OC)c(OC)c1`: the GI50 in the test with NCI-H23 is 36.1 µM (inactive); in the test on HOP-92 it was 30.5 µM (inactive); in the test with UO-31, 27.8 µM (inactive); in the test on HCT-116, 38.4 µM (inactive); in the test on LOX IMVI, 52.2 µM (inactive); with NCI-H522, 40.1 µM (inactive). Further, the GI50 in the test on NCI-H226 was 69.5 µM (inactive); in the test with OVCAR-8 it was > 10 µM (inactive); in the test with EKVX it was 79.4 µM (inactive); in the test with HCC 2998, 42.6 µM (inactive); in the test on SNB-75 it was 37.9 µM (inactive); with ACHN it was 52.2 µM (inactive). Also, the GI50 with SF-539 is > 100 µM (inactive); in the test on COLO 205 it was 37.8 µM (inactive); in the test with Malme-3M, 20 µM (inactive).

Consider `CCOc1ccccc1NC(=O)C(C#N)C1=C(Cl)C(=O)c2ccccc2C1=O` (configuration not stated), for which the GI50 with NCI-H23 was 2.14 µM (inactive); with HOP-92 it was 2.05 µM (inactive); with UO-31, 1.73 µM (inactive); in the test with HCT-116, 1.95 µM (inactive); in the test on LOX IMVI, 0.74 µM (active); in the test with NCI-H522, 2.09 µM (inactive). Moreover, the GI50 is 2.13 µM (inactive) in the test with NCI-H226; 0.792 µM (active) in the test with OVCAR-8; 1.5 µM (inactive) with EKVX; 2.76 µM (inactive) in the test on CAKI-1; 1.75 µM (inactive) with HCC 2998; 2.33 µM (inactive) in the test with SNB-75. Besides, the GI50 in the test on ACHN is 1.79 µM (inactive); in the test with SF-539 it was 2.12 µM (inactive); in the test with COLO 205, 1.98 µM (inactive); with Malme-3M, 1.57 µM (inactive).

`COc1cc2c3c(c1OC)/C(=N/OS(=O)(=O)c1ccc(C)cc1)CC3N(S(=O)(=O)c1ccc(C)cc1)CC2` (configuration not stated): the GI50 with NCI-H23, in the test with HOP-92, in the test with UO-31, with HCT-116, in the test with LOX IMVI and in the test on NCI-H522 was > 100 µM (inactive) each time. The GI50 in the test with NCI-H226 was > 100 µM (inactive); with OVCAR-8, 93.3 µM (inactive); in the test with EKVX, > 100 µM (inactive); in the test on CAKI-1, > 100 µM (inactive); in the test on HCC 2998, > 100 µM (inactive); in the test on SNB-75 it was 70.5 µM (inactive). Further, the GI50 in the test on ACHN, in the test on SF-539, in the test with COLO 205 and with Malme-3M was > 100 µM (inactive) each time.

Consider `CCOc1ccccc1C=C1c2ccccc2C(=O)c2ccccc21`, for which the GI50 is 4.06 µM (inactive) in the test on NCI-H23; 5.48 µM (inactive) in the test on HOP-92; 2.59 µM (inactive) with UO-31; 4.63 µM (inactive) in the test with HCT-116; 8.69 µM (inactive) in the test on LOX IMVI; 2.36 µM (inactive) in the test on NCI-H522. Moreover, the GI50 with OVCAR-8 was 5.27 µM (inactive); in the test with EKVX, 3.23 µM (inactive); in the test on CAKI-1, 2.11 µM (inactive); in the test on HCC 2998 it was 3.63 µM (inactive); in the test on SNB-75, 2.17 µM (inactive); in the test with ACHN, 8.63 µM (inactive). Further, the GI50 was 2.16 µM (inactive) in the test on SF-539, 3.78 µM (inactive) in the test with COLO 205 and 8.15 µM (inactive) in the test on Malme-3M.

Consider `NC(=O)/C(=N\NC(=O)c1cc2ccccc2cc1O)C1C(=O)N(c2ccccc2)N=C1N` (configuration not stated), for which the GI50 in the test on NCI-H23 is 20.3 µM (inactive); with HOP-92, 22.3 µM (inactive); in the test with UO-31 it was 7.73 µM (inactive); in the test with HCT-116, 27.2 µM (inactive); with LOX IMVI, > 100 µM (inactive); in the test on NCI-H226, 24.2 µM (inactive). The GI50 with OVCAR-8 is 26.3 µM (inactive); with EKVX it was 32.2 µM (inactive); in the test with HCC 2998, 37.9 µM (inactive); with SNB-75, 20.5 µM (inactive); in the test with ACHN it was 29.9 µM (inactive); in the test with COLO 205, 28.8 µM (inactive). Further, the GI50 in the test on Malme-3M is 58.7 µM (inactive).

`CN(C)C=[N+]=[N-]`: the GI50 in the test on NCI-H23 was > 100 µM (inactive); with HOP-92, > 100 µM (inactive); in the test with UO-31, > 100 µM (inactive); with HCT-116, > 100 µM (inactive); in the test on NCI-H522 it was 0.17 µM (active); in the test on NCI-H226, > 100 µM (inactive). In addition, the GI50 in the test on OVCAR-8 was > 100 µM (inactive); in the test with EKVX, > 100 µM (inactive); in the test with CAKI-1, 43 µM (inactive); in the test with HCC 2998 it was > 100 µM (inactive); in the test on SNB-75, > 100 µM (inactive); with ACHN, > 100 µM (inactive). Further, the GI50 in the test with SF-539, with COLO 205 and in the test on Malme-3M was > 100 µM (inactive) throughout.

For `CCOC(=O)Cc1ccc2c(c1O)C(=O)c1c(ccc(CC(=O)OCC)c1O)C2=O`, the GI50 was > 100 µM (inactive) in the test on NCI-H23; > 100 µM (inactive) with HOP-92; > 100 µM (inactive) with UO-31; > 100 µM (inactive) with HCT-116; 27.9 µM (inactive) with LOX IMVI; > 100 µM (inactive) in the test with NCI-H522. Also, the GI50 was 43.5 µM (inactive) in the test with NCI-H226; > 100 µM (inactive) in the test with OVCAR-8; > 100 µM (inactive) in the test with EKVX; > 100 µM (inactive) with HCC 2998; > 100 µM (inactive) in the test with SNB-75; > 100 µM (inactive) in the test on ACHN. Further, the GI50 in the test on SF-539 was > 100 µM (inactive); in the test on COLO 205, > 100 µM (inactive); in the test on Malme-3M, 30.1 µM (inactive).

On to `S=P1(c2ccccc2)Nc2ccc(Cl)cc2N1` (configuration not stated), for which the GI50 with NCI-H23 was > 100 µM (inactive); in the test on HOP-92 it was 20.2 µM (inactive); in the test on UO-31, 56.4 µM (inactive); with LOX IMVI, > 100 µM (inactive); in the test with NCI-H522 it was 36.5 µM (inactive); in the test with NCI-H226 it was > 100 µM (inactive). In addition, the GI50 with EKVX is > 100 µM (inactive); in the test with CAKI-1, 32.6 µM (inactive); in the test with HCC 2998, > 100 µM (inactive); in the test on ACHN it was 89.1 µM (inactive); in the test with SF-539, > 100 µM (inactive); with COLO 205 it was 19.9 µM (inactive). Further, in the test with Malme-3M, the GI50 is > 100 µM (inactive).

As to `COc1ccccc1NC(=O)CC(=O)N1N=C(C)C(/N=N/c2ccc(S(N)(=O)=O)cc2)C1=O` (configuration not stated), the GI50 in the test with NCI-H23, in the test on HOP-92, in the test on UO-31, in the test on HCT-116, in the test on LOX IMVI and in the test on NCI-H522 was > 100 µM (inactive) throughout. For the same molecule, the GI50 with NCI-H226, in the test on OVCAR-8, in the test with EKVX, in the test with CAKI-1, in the test on HCC 2998 and in the test with SNB-75 was > 100 µM (inactive) each time. Further, the GI50 in the test with ACHN, with SF-539, in the test on COLO 205 and in the test with Malme-3M was > 100 µM (inactive) throughout.

Take `COc1cccc(NC(=O)CC(=O)N2N=C(N3c4ccccc4Sc4ccccc43)CC2c2ccccc2)c1` (configuration not stated): the GI50 in the test with NCI-H23, in the test on HOP-92, with UO-31, in the test with HCT-116, in the test with LOX IMVI and with NCI-H226 was > 100 µM (inactive) in each case. Moreover, the GI50 in the test on OVCAR-8, with EKVX, in the test with CAKI-1, in the test on HCC 2998, in the test with SNB-75 and in the test on ACHN was > 100 µM (inactive) each time. In addition, the GI50 in the test with SF-539, in the test on COLO 205 and in the test on Malme-3M was > 100 µM (inactive) throughout.

The values are drawn from ChEMBL document CHEMBL1201862, “PubChem BioAssay data set” (2004).
